Data on one molecule can be found in publication PMC6316731 (Brain Sciences, 2018).

Usually EC50 stands for the midpoint of the concentration-response curve.

The test relates to GABA induced current in MSNs (GABAA receptors with δ subunits / GABAC receptors). The class given is cell-based, mouse.

SMILES strings stand for the structures.

Turning to `Oc1noc2c1CCNC2` [Gaboxadol, 4,5,6,7-tetrahydroisoxazolo (5,4-c) pyridin-3-ol], the “Effect on IGABA” value was “concentration-dependent reduction in IGABA”. In addition, the concentration giving a half-maximal response (EC50) (read-out: EC50, percent reduction in current by Gaboxadol) was 9.81 ± 3.56 µM.
